Among the test systems are A498 renal; CCRF-CEM leukemia; COLO 205 colon; HS 578T breast; LOX IMVI melanoma; MCF7 breast; PC-3 prostate; UO-31 renal.
Common to all, as to experiment: growth of human tumour cells (NCI), 48 h

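Briefly, cells in 96-well plates were exposed to five compound concentrations for 48 h, and endpoints were estimated by linear interpolation. Abbreviation: GI50, concentration required for 50% inhibition of growth. TGI is the concentration that stops growth completely.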

Here are results for ten compounds from PubChem BioAssay (NCI).

In the case of `C=Cn1c([N+](=O)[O-])cnc1/C=C/c1ccc(C(=O)OCCN2CCOCC2)cc1`, the TGI in the test with A498 renal, with CCRF-CEM leukemia, in the test on COLO 205 colon, in the test on HS 578T breast, in the test with LOX IMVI melanoma and in the test on MCF7 breast was above 100 µM throughout. Also, the TGI with PC-3 prostate is above 100 µM.

For the compound `CCCCCCNCc1cc(C(C)(C)C)cc(CNCCCCCC)c1O`, the GI50 was 2.02 µM in the test with A498 renal; 1.69 µM with CCRF-CEM leukemia; 1.67 µM in the test on COLO 205 colon; 1.72 µM in the test on HS 578T breast; 1.58 µM with LOX IMVI melanoma; 1.71 µM with MCF7 breast. Also, the GI50 with PC-3 prostate is 1.53 µM; in the test with UO-31 renal, 1.37 µM. Also, the TGI stood at 3.47 µM in the test with A498 renal; 4.26 µM with CCRF-CEM leukemia; 3.07 µM in the test on COLO 205 colon; 4.03 µM in the test with HS 578T breast; 2.94 µM in the test with LOX IMVI melanoma; 3.17 µM with MCF7 breast. For the same compound, the results for the TGI in the test with PC-3 prostate and in the test on UO-31 renal were 2.9 µM and 2.8 µM, respectively.

`COC(=O)c1cc(OC)c(OC)c(OC)c1-c1cc2c(cc1C=O)OCO2`: the TGI with A498 renal, in the test with CCRF-CEM leukemia, in the test on COLO 205 colon, with HS 578T breast, in the test on LOX IMVI melanoma and in the test with MCF7 breast was above 10 µM throughout. Also, the TGI with PC-3 prostate and with UO-31 renal was above 10 µM each time.

Turning to `Cc1[nH]c2cc(F)ccc2c1-c1nc2c3cccnc3c3ncccc3c2[nH]1`, the GI50 in the test with A498 renal was 0.263 µM; in the test with CCRF-CEM leukemia it was 0.0672 µM; in the test with COLO 205 colon, 0.178 µM; in the test on HS 578T breast, 1.09 µM; in the test on LOX IMVI melanoma, 0.0472 µM; in the test with MCF7 breast it was 0.319 µM. Also, the values for the GI50 with PC-3 prostate and in the test with UO-31 renal were 0.183 µM and 0.266 µM, respectively. Further, the TGI in the test with A498 renal was 1.06 µM; in the test with CCRF-CEM leukemia, 0.644 µM; in the test on COLO 205 colon, 1.26 µM; in the test on HS 578T breast, 4.74 µM; with LOX IMVI melanoma, 0.697 µM; in the test on MCF7 breast, 1.65 µM. For the same compound, the TGI was found to be 2.93 µM with PC-3 prostate and 0.929 µM in the test on UO-31 renal.

Consider `O=C1CC/C(=C/COc2cc(=O)oc3ccccc23)O1`, for which the GI50 with A498 renal is 12.6 µM; in the test with CCRF-CEM leukemia, 3.1 µM; in the test on COLO 205 colon it was 3.61 µM; in the test with HS 578T breast, 10.5 µM; in the test on LOX IMVI melanoma, 6.41 µM; in the test on MCF7 breast, 3.74 µM. In addition, the figures for the GI50 in the test on PC-3 prostate and in the test with UO-31 renal were 5.23 µM and 7.65 µM, respectively. Besides, the TGI in the test on A498 renal is 35.4 µM; in the test on CCRF-CEM leukemia it was 21.5 µM; with COLO 205 colon, 17.5 µM; with HS 578T breast it was 57.4 µM; with LOX IMVI melanoma, 19.7 µM; in the test on MCF7 breast, 20.2 µM. Besides, the results for the TGI in the test with PC-3 prostate and in the test with UO-31 renal were 23.9 µM and 21.2 µM, respectively.

As to `COC(=O)[C@H](Cc1cn(C)cn1)NC(=O)[C@H](C)NC(=O)Nc1cc(C(F)(F)F)cc(C(F)(F)F)c1`, the GI50 with A498 renal, in the test with CCRF-CEM leukemia, in the test with COLO 205 colon, in the test with HS 578T breast, in the test on LOX IMVI melanoma and with MCF7 breast was above 10 µM each time. In addition, the GI50 in the test with PC-3 prostate and in the test with UO-31 renal was above 10 µM in each case. The TGI in the test on A498 renal, in the test with CCRF-CEM leukemia, in the test with COLO 205 colon, in the test on HS 578T breast, with LOX IMVI melanoma and in the test with MCF7 breast was above 10 µM each time. The TGI with PC-3 prostate and with UO-31 renal was above 10 µM each time.

`NC(CSSCC(N)C(=O)O)C(=O)O` (configuration not stated): the GI50 in the test with A498 renal, with CCRF-CEM leukemia, in the test with COLO 205 colon, with HS 578T breast, in the test with LOX IMVI melanoma and in the test on MCF7 breast was above 100 µM in each case. Also, the GI50 in the test on PC-3 prostate and with UO-31 renal was above 100 µM each time. Besides, the TGI with A498 renal, with CCRF-CEM leukemia, with COLO 205 colon, in the test on HS 578T breast, with LOX IMVI melanoma and in the test on MCF7 breast was above 100 µM in each case. The TGI in the test with PC-3 prostate and with UO-31 renal was above 100 µM throughout.

On to `CN(CCCCCl)P(=O)(OCc1ccc([N+](=O)[O-])o1)OCC1OC(n2cnc([N+](=O)[O-])c2N)C(O)C1O` (configuration not stated), for which the GI50 is above 100 µM in the test on A498 renal; above 100 µM in the test with CCRF-CEM leukemia; above 100 µM with COLO 205 colon; above 100 µM in the test with HS 578T breast; above 100 µM with LOX IMVI melanoma; 54.8 µM in the test with MCF7 breast. The GI50 in the test with PC-3 prostate and with UO-31 renal was above 100 µM in each case. In addition, the TGI with A498 renal, with CCRF-CEM leukemia, in the test with COLO 205 colon, in the test on HS 578T breast, with LOX IMVI melanoma and in the test with MCF7 breast was above 100 µM each time. Also, the TGI in the test on PC-3 prostate and with UO-31 renal was above 100 µM throughout.

Regarding `Cc1ccc(-n2nnnc2-c2cnc(N3CCOCC3)nc2-c2cccc(C(F)(F)F)c2)cc1`, the GI50 with A498 renal is 2.71 µM; in the test on CCRF-CEM leukemia, 1.1 µM; with COLO 205 colon it was 1.81 µM; with HS 578T breast it was 1.27 µM; with LOX IMVI melanoma, 2.53 µM; in the test on MCF7 breast it was 1.32 µM. The results for the GI50 in the test with PC-3 prostate and with UO-31 renal were 1.44 µM and 1.14 µM, respectively. In addition, the TGI was 17.1 µM in the test with A498 renal; 2.55 µM in the test on CCRF-CEM leukemia; above 13.5 µM in the test on COLO 205 colon; above 13.8 µM in the test with HS 578T breast; 7.53 µM with LOX IMVI melanoma; above 32.8 µM in the test on MCF7 breast. Further, in the test on PC-3 prostate, the TGI turned out to be 3.93 µM.

Take `CCCCNc1ccc(Nc2ccccc2)cc1`: the GI50 in the test with A498 renal is 11.4 µM; with CCRF-CEM leukemia it was 2.93 µM; in the test with COLO 205 colon it was 2.77 µM; with HS 578T breast, 5.11 µM; with LOX IMVI melanoma, 5.85 µM; in the test with MCF7 breast, 3.74 µM. Further, the figures for the GI50 with PC-3 prostate and with UO-31 renal were 3.15 µM and 14.4 µM, respectively. Further, the TGI with A498 renal is above 100 µM; with CCRF-CEM leukemia, above 100 µM; in the test with COLO 205 colon it was 11.7 µM; in the test on HS 578T breast, 73.7 µM; with LOX IMVI melanoma, 21.5 µM; in the test on MCF7 breast, 28 µM. The TGI worked out at 38.2 µM with PC-3 prostate and 43.1 µM in the test with UO-31 renal.
